Test results reported in US7943648B2, “Salts of imidazole-5-carboxylic acid derivatives, a method for preparing same and pharmaceutical compositions comprising same” (Shanghai Allist Pharmaceutical Inc., priority 2006, dated 2011).

Key:
[1] = solvent H2O; stirred strongly 30 seconds in each 5 minutes, observed within 30 minutes
Description: Each compound prepared above was weighted and added to solvents with different volume capacity.

[2] = SD rats drug absorption test
Description: The intravenous blood was collected from venous plexus behind eyeballs of rats at different time before and after administration, and the blood plasma is prepared by separated.
Blood samples are collected from an orbit at different time after the administration.

CCCCc1nc(Cl)c(C(=O)OCOC(=O)OC(C)C)n1Cc1ccc(-c2ccccc2-c2nnn[nH]2)cc1 [Compound 1, 2-butyl-4-chloro-1-[2′-(1H-tetrazol-5-yl)1,1′-biphenyl-methyl]imidazole-5-carboxylic acid, 1-[(isopropoxycarbonyl)oxy]methyl ester]
Solubility (in H2O) [1]: Slightly soluble (1 g of compound can be dissolved in 100 ml˜1000 ml solvent)
Bioavailability ([2]; intragastric infusion versus EXP3174 intravenous 7.9 mg/kg, based on plasma EXP3174, 7.9 mg/kg): 4.11%
Tmax ([2]; intragastric infusion, same dosage as EXP3174 (7.9 mg/kg), active metabolite EXP3174 measured in blood plasma by LC-MS/MS): 2 h
